Experimental data reported in US9376418B2, “Substituted pyridine spleen tyrosine kinase (SYK) inhibitors” (Merck Sharp & Dohme Corp., priority 2012, dated 2016).

Target: T1, recombinant human GST-SYK (Homo sapiens, UniProt P43405)
T1 construct: purchased Carna Biosciences 08-176
Test: Homogeneous Time-Resolved Fluorescence (HTRF) assay for the recombinant human Syk enzyme
Assay type: biochemical
Conditions: HTRF assay, recombinant human GST-SYK; IC50 given as class symbols; read-out: rhSYK Activity
How it was run: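 Phosphorylation of a biotinylated Syk substrate peptide (250 nM) was run for 45 min at room temperature with 25 μM ATP and 5 mM Mg. It followed a 10-min preincubation of GST-hSYK ([…]) with compound in 15 mM Tris-HCl pH 7.5, 2 mM DTT. Product was detected by time-resolved fluorescence using a europium anti-phosphotyrosine antibody plus SA-APC in EDTA-containing quench buffer.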

Row | IC50 [nM] | Compound
1 | < 100 | Cc1cc(Nc2nccc(C(F)(F)F)n2)cc(-c2ccc(C(=O)N3CCC(C)(O)C3)nc2)c1 (centres unmarked) [Example 16.42, 3-methyl-1-{[5-(3-methyl-5-{[4-(trifluoromethyl)pyrimidin-2-yl]amino}phenyl)pyridin-2-yl]carbonyl}pyrrolidin-3-ol]
2 | < 100 | Cc1cc(Nc2nccc(C(F)(F)F)n2)cc(-c2ccc(C(=O)N3CC[C@H](CO)C3)nc2)c1 [Example 16.43, [(3S)-1-{[5-(3-methyl-5-{[4-(trifluoromethyl)pyrimidin-2-yl]amino}phenyl)pyridin-2-yl]carbonyl}pyrrolidin-3-yl]methanol]
3 | < 100 | Cc1cc(Nc2nccc(C(F)(F)F)n2)cc(-c2ccc(C(=O)N3CCCC34CCNC4=O)nc2)c1 (centres unmarked) [Example 16.44, 1-{[5-(3-methyl-5-{[4-(trifluoromethyl)pyrimidin-2-yl]amino}phenyl)pyridin-2-yl]carbonyl}-1,7-diazaspiro[4.4]nonan-6-one]
4 | < 100 | COCC(O)CNC(=O)c1ccc(-c2cc(C)cc(Nc3nccc(C(F)(F)F)n3)c2)cn1 (centres unmarked) [Example 16.45, N-(2-hydroxy-3-methoxypropyl)-5-(3-methyl-5-{[4-(trifluoromethyl)pyrimidin-2-yl]amino}phenyl)pyridine-2-carboxamide]
5 | 100 to 1000 | Cc1cc(Nc2nccc(C(F)(F)F)n2)cc(-c2ccc(C(=O)NC(C3CC3)C3CC3)nc2)c1 [Example 16.46, N-(dicyclopropylmethyl)-5-(3-methyl-5-{[4-(trifluoromethyl)pyrimidin-2-yl]amino}phenyl)pyridine-2-carboxamide]
6 | < 100 | Cc1cc(Nc2nccc(C(F)(F)F)n2)cc(-c2ccc(C(=O)N3CCCC(C)(O)C3)nc2)c1 (centres unmarked) [Example 16.47, 3-methyl-1-{[5-(3-methyl-5-{[4-(trifluoromethyl)pyrimidin-2-yl]amino}phenyl)pyridin-2-yl]carbonyl}piperidin-3-ol]
7 | < 100 | Cc1cc(Nc2nccc(C(F)(F)F)n2)cc(-c2ccc(C(=O)N3CCC(C)(O)CC3)nc2)c1 [Example 16.48, 4-methyl-1-{[5-(3-methyl-5-{[4-(trifluoromethyl)pyrimidin-2-yl]amino}phenyl)pyridin-2-yl]carbonyl}piperidin-4-ol]
8 | < 100 | Cc1cc(Nc2nccc(C(F)(F)F)n2)cc(-c2ccc(C(=O)N3CC[S+]([O-])CC3)nc2)c1 [Example 16.49, N-(3-methyl-5-{6-[(1-oxidothiomorpholin-4-yl)carbonyl]pyridin-3-yl}phenyl)-4-(trifluoromethyl)pyrimidin-2-amine]
9 | < 100 | Cc1cc(Nc2nccc(C(F)(F)F)n2)cc(-c2ccc(C(=O)NCCS(N)(=O)=O)nc2)c1 [Example 16.50, 5-(3-methyl-5-{[4-(trifluoromethyl)pyrimidin-2-yl]amino}phenyl)-N-(2-sulfamoylethyl)pyridine-2-carboxamide]
10 | < 100 | Cc1cc(Nc2nccc(C(F)(F)F)n2)cc(-c2ccc(C(=O)N(C)Cc3n[nH]c(=O)[nH]3)nc2)c1 [Example 16.51, N-methyl-5-(3-methyl-5-{[4-(trifluoromethyl)pyrimidin-2-yl]amino}phenyl)-N-[(5-oxo-4,5-dihydro-1H-1,2,4-triazol-3-yl)methyl]pyridine-2-carboxamide]
11 | < 100 | Cc1cc(Nc2nccc(C(F)(F)F)n2)cc(-c2ccc(C(=O)N3CCC[S+]([O-])CC3)nc2)c1 (centres unmarked) [Example 16.52, N-(3-methyl-5-{6-[(1-oxido-1,4-thiazepan-4-yl)carbonyl]pyridin-3-yl}phenyl)-4-(trifluoromethyl)pyrimidin-2-amine]
12 | 100 to 1000 | Cc1cc(Nc2nccc(C(F)(F)F)n2)cc(-c2ccc(C(=O)NCc3ncc[nH]3)nc2)c1 [Example 16.53, N-(1H-imidazol-2-ylmethyl)-5-(3-methyl-5-{[4-(trifluoromethyl)pyrimidin-2-yl]amino}phenyl)pyridine-2-carboxamide]
13 | < 100 | Cc1cc(Nc2nccc(C(F)(F)F)n2)cc(-c2ccc(C(=O)NC3CCS(=O)(=O)C3)nc2)c1 (centres unmarked) [Example 16.54, N-(1,1-dioxidotetrahydrothiophen-3-yl)-5-(3-methyl-5-{[4-(trifluoromethyl)pyrimidin-2-yl]amino}phenyl)pyridine-2-carboxamide]
14 | < 100 | Cc1cc(Nc2nccc(C(F)(F)F)n2)cc(-c2ccc(C(=O)N3CCS(=O)(=O)CC3)nc2)c1 [Example 16.55, N-(3-{6-[(1,1-dioxidothiomorpholin-4-yl)carbonyl]pyridin-3-yl}-5-methylphenyl)-4-(trifluoromethyl)pyrimidin-2-amine]
15 | < 100 | Cc1cc(Nc2nccc(C(F)(F)F)n2)cc(-c2ccc(C(=O)N(C)CC(O)CO)nc2)c1 (centres unmarked) [Example 16.56, N-(2,3-dihydroxypropyl)-N-methyl-5-(3-methyl-5-{[4-(trifluoromethyl)pyrimidin-2-yl]amino}phenyl)pyridine-2-carboxamide]
16 | < 100 | CNS(=O)(=O)CCNC(=O)c1ccc(-c2cc(C)cc(Nc3nccc(C(F)(F)F)n3)c2)cn1 [Example 16.57, N-[2-(methylsulfamoyl)ethyl]-5-(3-methyl-5-{[4-(trifluoromethyl)pyrimidin-2-yl]amino}phenyl)pyridine-2-carboxamide]

Row | IC50 [nM] | Compound
17 | < 100 | Cc1cc(Nc2nccc(C(F)(F)F)n2)cc(-c2ccc(C(=O)N(C)CCS(C)(=O)=O)nc2)c1 [Example 16.58, N-methyl-N-[2-(methylsulfonyl)ethyl]-5-(3-methyl-5-{[4-(trifluoromethyl)pyrimidin-2-yl]amino}phenyl)pyridine-2-carboxamide]
18 | < 100 | CCN(C)C(=O)c1ccc(-c2cc(C)cc(Nc3nccc(C(F)(F)F)n3)c2)cn1 [Example 16.59, N-ethyl-N-methyl-5-(3-methyl-5-{[4-(trifluoromethyl)pyrimidin-2-yl]amino}phenyl)pyridine-2-carboxamide]
19 | < 100 | Cc1cc(Nc2nccc(C(F)(F)F)n2)cc(-c2ccc(C(=O)N(CCO)CCO)nc2)c1 [Example 16.60, N,N-bis(2-hydroxyethyl)-5-(3-methyl-5-{[4-(trifluoromethyl)pyrimidin-2-yl]amino}phenyl)pyridine-2-carboxamide]
20 | < 100 | CNC(=O)CN(C)C(=O)c1ccc(-c2cc(C)cc(Nc3nccc(C(F)(F)F)n3)c2)cn1 [Example 16.61, N-methyl-N-[2-(methylamino)-2-oxoethyl]-5-(3-methyl-5-{[4-(trifluoromethyl)pyrimidin-2-yl]amino}phenyl)pyridine-2-carboxamide]
21 | < 100 | Cc1cc(Nc2nccc(C(F)(F)F)n2)cc(-c2ccc(C(=O)N(C)CC(N)=O)nc2)c1 [Example 16.62, N-(2-amino-2-oxoethyl)-N-methyl-5-(3-methyl-5-{[4-(trifluoromethyl)pyrimidin-2-yl]amino}phenyl)pyridine-2-carboxamide]
22 | 100 to 1000 | CNC(=O)CNC(=O)c1ccc(-c2cc(C)cc(Nc3nccc(C(F)(F)F)n3)c2)cn1 [Example 16.63, N-[2-(methylamino)-2-oxoethyl]-5-(3-methyl-5-{[4-(trifluoromethyl)pyrimidin-2-yl]amino}phenyl)pyridine-2-carboxamide]
23 | 100 to 1000 | Cc1cc(Nc2nccc(C(F)(F)F)n2)cc(-c2ccc(C(=O)NCCS(C)(=O)=O)nc2)c1 [Example 16.64, N-[2-(methylsulfonyl)ethyl]-5-(3-methyl-5-{[4-(trifluoromethyl)pyrimidin-2-yl]amino}phenyl)pyridine-2-carboxamide]
24 | 100 to 1000 | Cc1cc(Nc2nccc(C(F)(F)F)n2)cc(-c2ccc(C(=O)N3CCN(CC(F)(F)F)CC3)nc2)c1 [Example 16.65, N-[3-methyl-5-(6-{[4-(2,2,2-trifluoroethyl)piperazin-1-yl]carbonyl}pyridin-3-yl)phenyl]-4-(trifluoromethyl)pyrimidin-2-amine]
25 | < 100 | Cc1cc(Nc2nccc(C(F)(F)F)n2)cc(-c2ccc(CN3CCNC3=O)nc2)c1 [Example 17.1, 1-{[5-(3-Methyl-5-{[4-(trifluoromethyl)pyrimidin-2-yl]amino}phenyl)pyridin-2-yl]methyl}imidazolidin-2-one]
26 | < 100 | Cc1cc(Nc2nccc(C(F)(F)F)n2)cc(-c2ccc(CNC(N)=O)nc2)c1 [Example 17.2, 1-{[5-(3-methyl-5-{[4-(trifluoromethyl)pyrimidin-2-yl]amino}phenyl)pyridin-2-yl]methyl}urea]
27 | < 100 | CNC(=O)NCc1ccc(-c2cc(C)cc(Nc3nccc(C(F)(F)F)n3)c2)cn1 [Example 17.3, 1-methyl-3-{[5-(3-methyl-5-{[4-(trifluoromethyl)pyrimidin-2-yl]amino}phenyl)pyridin-2-yl]methyl}urea]
28 | < 100 | CCC(C)(C#N)Nc1ccc(-c2cc(C)cc(Nc3nccc(C(F)(F)F)n3)c2)cn1 (centres unmarked) [Example 18.1, 2-Methyl-2-{[5-(3-methyl-5-{[4-(trifluoromethyl)pyrimidin-2-yl]amino}phenyl)pyridin-2-yl]amino}butanenitrile]
29 | 100 to 1000 | Cc1cc(Nc2nccc(C(F)(F)F)n2)cc(-c2ccc(NC(C)(C#N)C(C)(C)C)nc2)c1 (centres unmarked) [Example 18.3, 2,3,3-trimethyl-2-{[5-(3-methyl-5-{[4-(trifluoromethyl)pyrimidin-2-yl]amino}phenyl)pyridin-2-yl]amino}butanenitrile]
30 | 100 to 1000 | CCC(C)(C#N)Nc1ccc(-c2cc(C)cc(Nc3nccc(C(F)(F)F)n3)c2)cn1 (centres unmarked) [Example 18.4, 2-methyl-2-{[5-(3-methyl-5-{[4-(trifluoromethyl)pyrimidin-2-yl]amino}phenyl)pyridin-2-yl]amino}butanenitrile]
31 | < 100 | Cc1cc(Nc2nccc(C(F)(F)F)n2)cc(-c2ccc(NC(C)(CC(F)(F)F)C(=O)O)nc2)c1 (centres unmarked) [Example 18.5, 4,4,4-Trifluoro-N-[5-(3-methyl-5-{[4-(trifluoromethyl)pyrimidin-2-yl]amino}phenyl)pyridin-2-yl]isovaline]
32 | < 100 | CCC(C)(Nc1ccc(-c2cc(C)cc(Nc3nccc(C(F)(F)F)n3)c2)cn1)C(=O)O (centres unmarked) [Example 18.6]
